Our source for the IC50 values is patent US20150344427A1 (EPIZYME, INC., priority 2012, published 2015).

For one experiment, the system named is WSU-DLCL2 cells. The experiment is described as follows: Cell Proliferation Analysis, WSU-DLCL2. The conditions noted are these: Homo sapiens, WSUDLCL2, 144 h, 6 days, Cell Titer Glo. In kind it is cell-based. The source says:
WSU-DLCL2 suspension cells were purchased from DSMZ (German Collection of Microorganisms and Cell Cultures, Braunschweig, Germany). RPMI/Glutamax Medium, Penicillin-Streptomycin, Heat Inactivated Fetal Bovine Serum were purchased from Life Technologies, Grand Island, N.Y., USA. V-bottom polypropylene 384-well plates were purchased from Greiner Bio-One, Monroe, N.C., USA. Cell culture 384-well white opaque plates were purchased from Perkin Elmer, Waltham, Mass., USA. Cell-Titer Glo® was purchased from Promega Corporation, Madison, Wis., USA. SpectraMax M5 plate reader was purchased from Molecular Devices LLC, Sunnyvale, Calif., USA.
WSU-DLCL2 suspension cells were maintained in growth medium (RPMI 1640 supplemented with 10% v/v heat inactivated fetal bovine serum and cultured at 37° C. under 5% CO2. Under assay conditions, cells were incubated in Assay Medium (RPMI 1640 supplemented with 20% v/v heat inactivated fetal bovine serum and 100 units/mL penicillin-streptomycin) at 37° C. under 5% CO2.
For the assessment of the effect of compounds on the proliferation of the WSU-DLCL2 cell line, exponentially growing cells were plated in 384-well white opaque plates at a density of 1250 cell/ml in a final volume of 50 μl of assay medium. A compound source plate was prepared by performing triplicate nine-point 3-fold serial dilutions in DMSO, beginning at 10 mM (final top concentration of compound in the assay was 20 μM and the DMSO was 0.2%). A 100 nL aliquot from the compound stock plate was added to its respective well in the cell plate. […] After addition of compounds, assay plates were incubated for 6 days at 37° C., 5% CO2, relative humidity >90% for 6 days. Cell viability was measured by quantization of ATP present in the cell cultures, adding 35 μl of Cell Titer Glo® reagent to the cell plates. Luminescence was read in the SpectraMax M5. The concentration inhibiting cell viability by 50% was determined using a 4-parametric fit of the normalized dose response curves.

Experiment [1] concerns the target T1, wild-type EZH2 (PRC2 enzyme) (Homo sapiens, UniProt Q15910).
T1 construct: made in house; host or cells: Spodoptera frugiperda (sf9) cells, baculovirus
The experiment in a line: PRC2 enzyme assay on peptide substrate, wild-type EZH2. Type of experiment: biochemical. To be noted: wild-type PRC2 enzyme 4 nM, H3K27me0 peptide, 3H-SAM Flashplate; read-out: WT EZH2 IC50. The source says: General Materials. S-adenosylmethionine (SAM), S-adenosylhomocyteine (SAH), bicine, KCl, Tween20, dimethylsulfoxide (DMSO) and bovine skin gelatin (BSG) were purchased from Sigma-Aldrich at the highest level of purity possible. Dithiothreitol (DTT) was purchased from EMD. ^3H-SAM was purchased from American Radiolabeled Chemicals with a specific activity of 80 Ci/mmol. 384-well streptavidin Flashplates were purchased from PerkinElmer.
Peptides representative of human histone H3 residues 21-44 containing either an unmodified lysine 27 (H3K27me0) or dimethylated lysine 27 (H3K27me2) were synthesized with a C-terminal G(K-biotin) linker-affinity tag motif and a C-terminal amide cap by 21st Century Biochemicals. […] The sequences are listed below.
Human PRC2 enzymes were purified as 4-component enzyme complexes co-expressed in Spodoptera frugiperda (sf9) cells using a baculovirus expression system. […] The EED subunit contained an N-terminal FLAG tag that was used to purify the entire 4-component complex from sf9 cell lysates.
The assays were all performed in a buffer consisting of 20 mM bicine (pH=7.6), 0.5 mM DTT, 0.005% BSG and 0.002% Tween20, prepared on the day of use. Compounds in 100% DMSO (1 μL) were spotted into polypropylene 384-well V-bottom plates (Greiner) using a Platemate 2×3 outfitted with a 384-channel pipet head (Thermo). DMSO (1 μL) was added to columns 11, 12, 23, 24, rows A-H for the maximum signal control, and SAH, a known product and inhibitor of PRC2 (1 μL) was added to columns 11,12, 23, 24, rows I-P for the minimum signal control. A cocktail (40 μL) containing the wild-type PRC2 enzyme and H3K27me0 peptide or any of the Y641 mutant enzymes and H3K27me2 peptide was added by Multidrop Combi (Thermo). The compounds were allowed to incubate with PRC2 for 30 min at 25° C., then a cocktail (10 μL) containing a mixture of non-radioactive and ^3H-SAM was added to initiate the reaction (final volume=51 μL). In all cases, the final concentrations were as follows: wild-type or mutant PRC2 enzyme was 4 nM, SAH in the minimum signal control wells was 1 mM and the DMSO concentration was 1%. The assays were stopped by the addition of non-radioactive SAM (10 μL) to a final concentration of 600 μM, which dilutes the ^3H-SAM to a level where its incorporation into the peptide substrate is no longer detectable. 50 μL of the reaction in the 384-well polypropylene plate was then transferred to a 384-well Flashplate and the biotinylated peptides were allowed to bind to the streptavidin surface for at least 1 h before being washed three times with 0.1% Tween20 in a Biotek ELx405 plate washer. The plates were then read in a PerkinElmer TopCount platereader to measure the quantity of ^3H-labeled peptide bound to the Flashplate surface, measured as disintegrations per minute (dpm) or alternatively, referred to as counts per minute (cpm).
Where dpm=disintegrations per minute, cmpd=signal in assay well, and min and max are the respective minimum and maximum signal controls.
Where top and bottom are the normally allowed to float, but may be fixed at 100 or 0 respectively in a 3-parameter fit. The Hill Coefficient normally allowed to float but may also be fixed at 1 in a 3-parameter fit. Y is the % inhibition and X is the compound concentration.

T1 sequence (Q15910 whole entry): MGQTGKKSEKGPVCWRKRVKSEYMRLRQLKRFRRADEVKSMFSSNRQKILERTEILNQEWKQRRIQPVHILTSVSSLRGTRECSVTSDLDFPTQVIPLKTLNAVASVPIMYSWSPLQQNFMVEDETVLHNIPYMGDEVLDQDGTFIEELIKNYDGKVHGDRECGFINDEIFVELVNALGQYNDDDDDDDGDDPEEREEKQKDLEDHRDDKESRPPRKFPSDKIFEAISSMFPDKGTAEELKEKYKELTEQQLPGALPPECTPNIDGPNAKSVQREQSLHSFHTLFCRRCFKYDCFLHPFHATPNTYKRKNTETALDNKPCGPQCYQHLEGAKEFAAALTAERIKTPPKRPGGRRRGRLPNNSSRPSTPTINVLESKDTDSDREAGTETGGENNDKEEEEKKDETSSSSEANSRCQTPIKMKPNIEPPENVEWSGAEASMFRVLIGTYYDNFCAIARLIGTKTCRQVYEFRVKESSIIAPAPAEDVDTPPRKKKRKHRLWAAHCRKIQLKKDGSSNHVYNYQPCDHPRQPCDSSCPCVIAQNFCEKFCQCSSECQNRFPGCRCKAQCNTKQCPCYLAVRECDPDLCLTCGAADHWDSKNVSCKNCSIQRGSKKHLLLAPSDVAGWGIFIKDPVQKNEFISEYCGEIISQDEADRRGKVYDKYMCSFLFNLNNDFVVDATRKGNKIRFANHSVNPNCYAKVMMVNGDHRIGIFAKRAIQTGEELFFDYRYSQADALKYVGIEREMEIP
T1 sequence (O75530 whole entry partner): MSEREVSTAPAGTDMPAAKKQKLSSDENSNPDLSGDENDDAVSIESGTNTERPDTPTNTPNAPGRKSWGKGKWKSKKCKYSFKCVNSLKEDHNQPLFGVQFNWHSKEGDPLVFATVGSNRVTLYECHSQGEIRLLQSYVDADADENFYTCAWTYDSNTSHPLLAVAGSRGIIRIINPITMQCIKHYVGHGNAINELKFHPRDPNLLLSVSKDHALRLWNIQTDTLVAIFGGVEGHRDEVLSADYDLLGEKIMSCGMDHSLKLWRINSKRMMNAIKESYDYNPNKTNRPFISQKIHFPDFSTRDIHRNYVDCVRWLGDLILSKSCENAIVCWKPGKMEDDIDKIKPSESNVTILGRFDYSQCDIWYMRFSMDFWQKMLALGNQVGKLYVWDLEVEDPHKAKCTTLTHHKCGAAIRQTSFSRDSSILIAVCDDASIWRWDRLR
T1 sequence (Q15022 whole entry partner): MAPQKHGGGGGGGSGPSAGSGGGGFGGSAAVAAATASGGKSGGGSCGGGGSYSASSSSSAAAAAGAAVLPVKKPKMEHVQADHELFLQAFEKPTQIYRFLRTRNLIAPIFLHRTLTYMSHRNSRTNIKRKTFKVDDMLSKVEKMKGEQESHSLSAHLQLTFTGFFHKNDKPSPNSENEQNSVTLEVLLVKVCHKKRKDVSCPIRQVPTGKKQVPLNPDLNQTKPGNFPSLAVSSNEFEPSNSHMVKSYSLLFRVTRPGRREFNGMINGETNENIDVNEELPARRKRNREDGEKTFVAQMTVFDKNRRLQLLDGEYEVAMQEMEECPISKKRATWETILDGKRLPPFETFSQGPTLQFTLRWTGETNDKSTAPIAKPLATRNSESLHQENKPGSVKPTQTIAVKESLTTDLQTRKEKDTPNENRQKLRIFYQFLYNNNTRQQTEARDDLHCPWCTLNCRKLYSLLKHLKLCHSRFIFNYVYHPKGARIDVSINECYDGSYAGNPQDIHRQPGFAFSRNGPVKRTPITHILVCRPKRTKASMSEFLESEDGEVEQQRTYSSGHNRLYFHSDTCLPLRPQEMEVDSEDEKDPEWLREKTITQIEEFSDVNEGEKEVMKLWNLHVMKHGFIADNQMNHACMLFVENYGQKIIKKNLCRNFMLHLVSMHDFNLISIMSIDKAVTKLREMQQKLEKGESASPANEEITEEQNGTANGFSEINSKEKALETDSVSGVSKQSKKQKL
T1 sequence (Q09028 whole entry partner): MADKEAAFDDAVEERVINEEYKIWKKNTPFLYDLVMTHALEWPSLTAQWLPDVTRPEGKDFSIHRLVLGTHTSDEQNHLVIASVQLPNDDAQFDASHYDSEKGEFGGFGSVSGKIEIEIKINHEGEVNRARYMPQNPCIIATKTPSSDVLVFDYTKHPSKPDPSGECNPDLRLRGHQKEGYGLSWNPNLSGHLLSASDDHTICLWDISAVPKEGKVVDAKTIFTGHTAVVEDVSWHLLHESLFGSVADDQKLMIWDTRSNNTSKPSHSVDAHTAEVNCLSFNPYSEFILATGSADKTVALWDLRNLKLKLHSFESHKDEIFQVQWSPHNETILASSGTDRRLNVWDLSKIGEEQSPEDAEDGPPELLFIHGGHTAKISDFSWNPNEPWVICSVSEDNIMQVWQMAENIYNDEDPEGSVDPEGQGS

Usually IC50 stands for the concentration needed to halve the response being measured. Turning to `CCN(c1cc(Cl)cc(C(=O)NCc2c(C)[nH]c(C)cc2=O)c1C)[C@H]1CC[C@H](N(C)C)CC1` [Compound 1, 5-chloro-N-((2,6-dimethyl-4-oxo-1,4-dihydropyridin-3-yl)methyl)-3-(((trans)-4-(dimethylamino)cyclohexyl)(ethyl)amino)-2-methylbenzamide], the IC50 with WSU-DLCL2 cells was 17100 nM; in experiment [1] it was 22 to 37 nM.
Regarding `CCN(c1cc(Cl)cc(C(=O)NCc2c(C)n(C)c(C)cc2=O)c1C)[C@H]1CC[C@H](N(C)C)CC1` [Compound 86], the IC50 is more than 20000 nM with WSU-DLCL2 cells and more than 50000 nM in experiment [1].
In the same order, the values of `CCn1c(C)cc(=O)c(CNC(=O)c2cc(Cl)cc(N(CC)[C@H]3CC[C@H](N(C)C)CC3)c2C)c1C` [Compound 87] are 3000 nM and 35400 nM.
`CCN(c1cc(-c2ccc(COC)nc2)cc(C(=O)NCc2c(Cl)[nH]c(C)cc2=O)c1C)[C@H]1CC[C@H](N(C)C)CC1` [Compound 88]: the IC50 with WSU-DLCL2 cells is 5100 nM; in experiment [1] it was 40 nM.
In the same order, the values of `CCN(c1cc(-c2cnn(C)c2)cc(C(=O)NCc2c(Cl)[nH]c(C)cc2=O)c1C)[C@H]1CC[C@H](N(C)C)CC1` [Compound 89] are 11500 nM and 270 nM.
Take `CCN(c1cc(-c2ccc(C)nc2)cc(C(=O)NCc2c(Cl)[nH]c(C)cc2=O)c1C)[C@H]1CC[C@H](N(C)C)CC1` [Compound 90]: the IC50 in the experiment with WSU-DLCL2 cells was 5300 nM; in experiment [1], 50 nM.
In the same order, the values of `CCN(c1cc(-c2cnc(C)cn2)cc(C(=O)NCc2c(Cl)[nH]c(C)cc2=O)c1C)[C@H]1CC[C@H](N(C)C)CC1` [Compound 91] are 5400 nM and 140 nM.
In the same order, the values of `CCN(c1cc(-c2ccc(OCCOC)cc2)cc(C(=O)NCc2c(Cl)[nH]c(C)cc2=O)c1C)[C@H]1CC[C@H](N(C)C)CC1` [Compound 92] are 4400 nM and 38 nM.
In the same order, the values of `CCN(c1cc(-c2ccc(OCCOC)cc2)cc(C(=O)NCc2c(C)[nH]c(C)cc2=O)c1C)[C@H]1CC[C@H](N(C)C)CC1` [Compound 93] are 1200 nM and 5 nM.
With `CCCN(c1cc(-c2ccc(OCCOC)cc2)cc(C(=O)NCc2c(C)[nH]c(C)cc2=O)c1C)[C@H]1CC[C@H](N(C)C)CC1` [Compound 94], the IC50 in the experiment on WSU-DLCL2 cells was determined as 2900 nM; in experiment [1] it was 25 nM.
`CCN(c1cc(-c2ccc(OCCOC)cc2)cc(C(=O)NCc2c(C)[nH]c(C)cc2=O)c1C)[C@H]1CC[C@H](N(C)CCOC)CC1` [Compound 100]: the IC50 was determined as 4200 nM in the experiment with WSU-DLCL2 cells and 27 nM in experiment [1].
